Measurements published in patent publication US12631623B2, “Heart tissue model” (IMBA—INSTITUT FÜR MOLEKULARE BIOTECHNOLOGIE GMBH, priority 2020, dated 2026).
“Also recorded” adds a separate entry of the source.

What was measured:
[1] = tested on: cardioids (hPSC-derived); test: High-throughput imaging of cardioid diameter and cavity expansion at the cardiac mesoderm stage (day 3.5); type: cell-based, human; details: for cardiac mesoderm density / cell number per cardioid: BMP inhibition with Noggin or LDN193189, initial two days of cardiac mesoderm stage; for cavity expansion / cavity morphogenesis / organoid/cardioid diameter (size): Noggin 100 ng/ml or LDN193189 0.2 μM, initial two days of cardiac mesoderm stage
Procedure: (§1) Image acquisition and analysis—Fixed whole mounts and sections were imaged with point scanning (upright Zeiss LSM800 Axio Imager with an Apochromat 20× objective lens at 1× magnification) and spinning disk confocal microscopes (Olympus spinning disk system based on a IX3 Series (IX83) inverted microscope, equipped with a Yokogawa W1 spinning disc), or a widefield microscope (Zeiss Axio Imager 2, Axio Vert A1, Panoramic FLASH 250 II System). Live imaging experiments were performed using a Zeiss Celldiscoverer 7 or above-mentioned spinning disk microscope. For high-throughput imaging and analysis, images were taken with a Celigo Imaging Cytometer microscope (Nexcelom Biosciences, LLC) and analyzed with custom-made scripts written for the FIJI software. Sections for transmission electron microscopy were examined with aFEI Morgagni 268D TEM (FEI, Eindhoven, The Netherlands) operated at 80 kV. Images were acquired using an 11 megapixel Morada CCD camera (Olympus-SIS).
We next used cardioids to dissect how signaling controls intrinsic morphogenesis and patterning during cardioid specification. To quantify phenotypes with high statistical power, we combined the high-throughput cardioid platform with a custom-made semi-automated imaging/analysis FIJI-pipeline. Using this setup, we examined which signals control cardioid self-organization and at what stage of mesodermal specification they act. We first systematically tested the effects of key mesoderm and cardiac mesoderm signaling dosages (e. g. WNT, BMP) on cardiac cavity self-morphogenesis. […] An intermediate WNT dosage promoted both cavity morphogenesis and CM specification. The optimal WNT activation range was consistent for each hPSC line but differed across lines, consistent with numerous studies showing line-specific signaling responses. Importantly, the highest WNT dosage promoted cavity formation without CM specification (FIG. 16A), highlighting a striking difference in signaling control of cell-fate specification versus morphogenesis.

[2] = tested on: cardiac organoids (hPSC-derived); test: Reporter imaging / immunostaining of cardiomyocyte and endothelial cell organisation in cardiac organoids; type: cell-based, human; details: for location of endothelial cell layer: with VEGF; for organization of cardiomyocytes and endothelial cells: Wnt-inhibitor during differentiation, CHIR99021 5 μM or 6 μM; for EC lining of cavity: VEGF(-A) added after CM specification stage; for separation of CM and EC layers: VEGF(-A) included at cardiac mesoderm stage
Procedure: (§2) Immunostaining—Following fixation with 4% PFA (Sigma-Aldrich, #16005) specimens were washed twice in 1×PBS and the 3D constructs additionally once in PBS/Tween20 (0.1%, Sigma-Aldrich, #P1379) for at least 15 min each. Tissues were incubated in blocking solution consisting of PBS (Gibco, #14190094) with 4% goat (Bio-Rad Laboratories, #C07SA) or donkey serum (Bio-Rad Laboratories, #C06SB) and 0.2% Triton X-100 (Sigma-Aldrich, #T8787) for at least 15 minutes. The primary antibody was subsequently applied in above blocking buffer for 1-3 hours at room temperature or overnight at 4° C. in the case of the 2D samples and 2 days at 4° C. on a shaker for 3D samples. Following washing twice with PBS/Tween20, 3D tissues were incubated with the secondary antibody solution at 4° C. on a shaker for 2 more days while 2D samples were incubated up to 2 hours at room temperature. Following these washing steps and an additional PBS wash, tissues were ready for analysis or storage at 4° C. in PBS, while slides were mounted using fluorescence mounting medium (Dako Agilent Pathology Solutions, #S3023). 3D tissues were cleared with FocusClear (CellExplorer Labs, #FC-101) prior to imaging.
as §1

[3] = tested on: cardioids (hPSC-derived); test: RNA-seq gene expression of cardioids induced with high vs low CHIR99021; type: cell-based, human
Procedure: RNA isolation and RNA-seq/Smart-Seq2/single-cell (sc)RNA-seq preparation—RNA was isolated with the RNeasy Mini Kit (Qiagen, #74104). Generation of the bulk RNA-seq libraries was performed according to the manufacturer's instructions with QuantSeq 3′ mRNA-Seq Library Prep Kit FWD (Lexogen GmbH, #015). After the preparation of the libraries, samples were checked for an adequate size distribution with a fragment analyzer (Advanced Analytical Technologies, Inc) and were submitted to the Vienna Biocenter Core Facilities (VBCF) Next-Generation-Sequencing (NGS) facility for sequencing. For Smart-Seq2 analysis, 400 cells were sorted into lysis buffer and stored at −80° C. until further processing. […]
Bioinformatic analysis—Trimming was performed for Smart-Seq2 experiments using trim-galore v0.5.0 and for QuantSeq 3′ mRNA-Seq experiments using BBDuk v38.06 (ref=polyA.fa.gz,truseq.fa.gz k=13 ktrim=r useshortkmers=t mink=5 qtrim=r trimq=10 minlength=20). Reads mapping to abundant sequences included in the iGenomes UCSC hg38 reference (human rDNA, human mitochondrial chromosome, phiX174 genome, adapter) were removed using bowtie2 v2.3.4.1 alignment. Remaining reads were analyzed using genome and UCSC gene annotation provided in the iGenomes UCSC hg38 bundle (support.illumina.com/sequencing/sequencingsoftware/igenome.html). […]

[4] = tested on: hPSCs (WTC MYH10-GFP); test: Mesoderm induction of hPSC aggregates (T / SOX2 staining); type: cell-based, human; details: 8 uM CHIR99021, 40 h of mesoderm induction, 1000 hPSCs
Procedure: as §2

[5] = tested on: cardiac organoids (hPSC-derived, WTC MYL7-GFP/CDH5-Tomato)
Procedure: Generation of cardiac organoids with endothelial lining—Pluripotency maintenance medium was refreshed 6 h prior to seeding cells. Then, 2500-3000 hPSC were seeded into ultra-low cluster 96-well plates (Corning) in FLyAB(Ins) medium with CHIR (5-6 μM) and ROCKi (5 μM) for 36 h-40 h.
In order to stop endothelial cell differentiation, 100 nM sunitinib malate (Biovision, #1611) was added from the cardiac mesoderm stage (BFIIWPRa) onward.
Flow cytometry—Cells were dissociated using the CM dissociation kit (Stem Cell Technologies, #05025). After centrifugation for 3 min at 130 g, cells were resuspended in 300 μl PBS supplemented with 0.5 mM EDTA (Biological Industries, #01-862-1B) and 10% FBS (PAA Laboratories, #A15-108). Cells were acquired with a FACS LSR Fortessa II (BD) and analysed with FlowJo V10 (FlowJo, LLC) software. FACS sorting was performed using a Sony SH800 Cell Sorter (Sony Biotechnology).

[6] = tested on: cardiac mesoderm cavity structures (cardioids); test: Dextran incorporation assay in cardioids; type: cell-based, human; details: low-molecular-weight (4 kDa) dextran, cardiac mesoderm stage
Procedure: Dextran and Fluo-4 incorporation assays—A 4.4 kDa Dextran conjugated with TAMRA (Sigma Aldrich, T1037) was added to the cardioid culture between 64 h and 90 h. Cardioids were live imaged as cavities started to form. To image and analyze calcium-transients, 3D cardioids and 2D CM were loaded with Fluo-4 AM (Thermo Fisher Scientific, #F14217). After a 15-min incubation, cardioids were incubated for another 15 min in Tyrode's salt solution (Sigma Aldrich, #T2397). Subsequently, cardioids were imaged live and videos were analyzed with FIJI software (Schindelin et al., 2012, Nature Methods 9, 676-682) to acquire the signal intensity (F) of regions of interest and background (F0).

[7] = +Sunitinib (100 μM [sic]), end of differentiation day 7.5

For `Cc1c[nH]c(-c2cnc(NCCNc3ccc(C#N)cn3)nc2-c2ccc(Cl)cc2Cl)n1` [CHIR99021], the “cavity defect of HAND1 KO organoids” value ([1]; increased CHIR99021 during mesoderm induction, HAND1 KO (H9), d3.5) was “rescues cavity defect in HAND1 KO organoids”, the “cardioid diameter / lumen expansion as function of CHIR99021 dosage” value ([1]; range of CHIR99021 concentrations during mesoderm induction, day 3.5) was “dramatic effects on cardioid diameter; also recorded: striking effects on lumen expansion” and the “endothelial lining of cavities” value ([2]; 4 uM CHIR99021 during induction, d27, WTC MYL7-GFP) was “lining of internal cavities by endothelial (CD31+) cells”. For the same molecule, the “apoptosis (cleaved caspase 3 staining)” value ([2]; 4 μM CHIR condition) was “increased levels inside the EC ring”, the “apoptosis (cleaved caspase 3 staining)” value ([2]; 6 μM CHIR condition) was “low levels of apoptosis” and the “location of endothelial cell layer” value ([2]; high WNT activity, 5-8 μM CHIR during mesoderm induction) was “compartment/lining around the cardiomyocytes”. For the same molecule, the “location of endothelial cell layer” value ([2]; lower WNT activity, 4 μM (1-4 μM) CHIR during mesoderm induction) was “inner ring of EC expressing CD31”, the “location of endothelial cell layer” value ([2]; lower WNT activity, 4 μM (1-4 μM) CHIR during mesoderm induction, listed as CHIR) was “inside lining facing the cavity” and the “EC genes (PECAM1, CDH5, VEGFA, TAL1, LMO2, ETV2) expression” value ([3]; 4 μM CHIR99021 during mesoderm induction vs 8 μM) was “upregulated; also recorded: higher expression of EC-specifying genes”. For the same molecule, the “BMP target genes (HAND1, IRX3, BMP4, BMP2, BMPR2) expression” value ([3]; 8 μM during mesoderm induction (cavity-forming conditions)) was “upregulated” and the “exit from pluripotency (T up, SOX2 down)” value [4] was “efficiently exited pluripotency”.

With `Cc1ccc2nc(NC(=O)CSc3nc4c(c(=O)n3-c3ccccc3)SCC4)sc2c1` [IWP2] the “organization of cardiomyocytes and endothelial cells” value (“organization” below) [2] was “two-layered organization”.

For `O=C(Nc1cccc2cccnc12)c1ccc(N2C(=O)[C@@H]3[C@H](C2=O)[C@@H]2C=C[C@H]3C2)cc1` [IWR-1], the “organization” value [2] was “two-layered organization”.

`c1ccc2c(-c3cnn4cc(-c5ccc(N6CCNCC6)cc5)cnc34)ccnc2c1` [LDN193189] was tested, and the cardiac mesoderm density [1] was “denser cardiac mesoderm”, the “cell number per cardioid” value [1] was “remained stable” and the “cavity expansion / cavity morphogenesis” value [1] was “interfere with cavity expansion; also recorded: impaired cavity morphogenesis”. For the same molecule, the “organoid/cardioid diameter (size)” value ([1]; day 3.5) was “significantly decreased diameter; also recorded: reduces cardioid diameter; also recorded: decreased cardioid size”.

For `CCN(CC)CCNC(=O)c1c(C)[nH]c(/C=C2\C(=O)Nc3ccc(F)cc32)c1C` [Sunitinib], the MYL7-GFP expressing cardiomyocytes [5, 7] was 96%, the “cells expressing the endothelial marker CDH5-Tomato” value [5, 7] was 3% and the cardiomyocytes in organoids ([5]; Sunitinib 100 nM in the first 10 days of differentiation or longer) was “over 95%”.

With `Oc1nc(-c2ccc(C(F)(F)F)cc2)nc2c1CSCC2` [XAV939] the “organization” value [2] was “two-layered organization”.

In the case of VEGF, the “cell composition of cardioid-like structures” value ([2]; VEGF during cardiac mesoderm stage, no WNT inhibition) is reported as “containing only ECs and fibroblast-like cells without CMs; also recorded: contained primarily ECs and COL1A1^+ cells, without CMs”, the “EC lining of cavity” value [2] is reported as “occasionally led to partial EC lining of cavities but often also to ECs forming a partial outside layer” and the “EC lining of cavity” value ([2]; listed as VEGF-A) is reported as “occasionally observed formation of an EC layer lining the cardioid cavity”. The “separation of CM and EC layers” value [2] was “separate into a CM and an EC layer with a space between them”, the “separation of CM and EC layers” value ([2]; listed as VEGF-A) was “separated into CM and EC layers” and the “cardiomyocytes (MYL7+) in organoids” value ([5]; VEGF 200 ng/ml at cardiac mesoderm stage, intermediate WNT activation) was ~41%. For the same molecule, the “endothelial cells (CDH5+) in organoids” value ([5]; VEGF 200 ng/ml at cardiac mesoderm stage, intermediate WNT activation, listed as VEGF-A) was 53%.

dextran was tested, and the “permeability of cavity structures” value [6] was “impermeable” and the “permeability of cavity structures” value ([6]; listed as dextrans) was “not permeable”.

B1: Noggin (protein, UniProt Q13253 28-232, looked up)
Noggin: QHYLHIRPAPSDNLPLVDLIEHPDPIFDPKEKDLNETLLRSLLGGHYDPGFMATSPPEDRPGGGGGAAGGAEDLAELDQLLRQRPSGAMPSEIKGLEFSEGLAQGKKQRLSKKLRRKLQMWLWSQTFCPVLYAWNDLGSRFWPRYVKVGSCFSKRSCSVPEGMVCKPSKSVHLTVLRWRCQRRGGQRCGWIPIQYPIISECKCSC
In the case of B1, the cardiac mesoderm density [1] is reported as “denser cardiac mesoderm”, the “cell number per cardioid” value [1] is reported as “remained stable” and the “cavity expansion / cavity morphogenesis” value [1] is reported as “interfere with cavity expansion; also recorded: heavily impaired cavity expansion; also recorded: impaired cavity morphogenesis”. For the same molecule, the “organoid/cardioid diameter (size)” value ([1]; day 3.5) was “significantly decreased diameter; also recorded: reduces cardioid diameter; also recorded: decreased cardioid size”.

B2: BMP4: bone morphogenetic protein 4 (protein, UniProt P12644 293-408, looked up)
Bone morphogenetic protein 4: SPKHHSQRARKKNKNCRRHSLYVDFSDVGWNDWIVAPPGYQAFYCHGDCPFPLADHLNSTNHAIVQTLVNSVNSSIPKACCVPTELSAISMLYLDEYDKVVLKNYQEMVVEGCGCR
With B2 the cavity expansion ([1]; BMP signalling dosage at cardiac mesoderm stage, higher levels of BMP4) was “drove cavity expansion”.
